Results from US20100173991A1, “METHOD FOR THE SYNTHESIS OF A-RING AROMATIZED ACETYL MINOCYCLINES” (priority 2007, published 2010).
Structures can show the parent of a compound that is named as a salt.

Columns and labels:
[1] = tested on: Astroglia cells, non neoplastic embryonal astrocyte cell line of the rat, damaged by H2O2; type: cell-based; details: 30 min pre-incubation with 1.0, 5.0 or 25.0 μM, then 1.0 or 3.0 mM H2O2 for 2 hours; microscopic assessment of cell shape and mitochondria
Experimental: The test of the cell-protecting properties of the substances produced in the inventive method was carried out, exemplarily for a pure form of pentaacetyl cyclin of Formula II, by means of an astrocyte damaging model. This model is used for the examination of neurodegenerative diseases caused by oxidative stress or for the test of cell-protecting substances that can avoid or reduce such damage. In the exemplary model astrocytes are damaged by hydrogen peroxide (H2O2) and afterwards the functionality and morphology of the cells and mitochondria are microscopically assessed. An overproduction of H2O2 as reactive oxygen species (ROS) is considered to be, amongst others, the cause for many neurodegenerative processes and diseases in the CNS, such as stroke, Alzheimer's disease Parkinson's disease, post-traumatic injuries of the brain and spinal cord. Astonishingly, already much lower doses of pentaacetyl cyclin of Formula II could considerably reduce the damage of the mitochondria compared to the comparative substance minocycline hydrochloride (Example 3 and FIG. 4).
Astroglia cells, i.e. non neoplastic embryonal astrocyte cell line of the rat [Chamaon, K., Kirches, E., Kanakis, D., Braeuninger, S., Dietzmann, K., and Mawrin, C. (2005). […] A Zeiss Axiophot fluorescence microscope with CCD camera (AxioCam MRc) was used for the visual inspection and documentation. […]

E. coli C 600 hfc strain = assay: Antibiotic effect in the agar diffusion test; type: cell-based; details: filter paper sheets soaked with DMSO solutions 100 μM to 2.5 mM; LB agar, 37° C., 24 hours
Experimental: The test of the antibiotic effect of the pentaacetyl cyclin obtained in the inventive method was performed by using an E. coli strain (Embodiment 4). […] The liquid culture (cultivated in LB-Lennox-L-Broth-Base for 24 hours) of an E. coli suspension (150 μl) of the C 600 hfc strain was evenly distributed on LB agar (Lennox-L-Agar, Gibco) by means of a sterile Drigalski spatula. Afterwards, sterile filter paper sheets (diameter 5.3 mm) that have been soaked with sterile DMSO solutions and different concentrations (100 μM to 2.5 mM) of minocycline hydrochloride or pentaacetyl cyclin (Formula II) were placed on the breeding ground. After the incubation of the agars at 37° C. for 24 hours, the antibiotic activity of the substances was assessed on the basis of the diameters of the inhibiting areolas that become visible due to the missing opacification by bacteria.

CN(C)c1ccc(O)c2c1C[C@H]1C[C@H]3[C@H](N(C)C)C(O)=C(C(N)=O)C(=O)[C@@]3(O)C(O)=C1C2=O [minocycline hydrochloride, Minocycline hydrochloride, reference compound]
concentration showing protective effect against H2O2-induced damage of cells/mitochondria [1]: 25 µM

CC(=O)NC(=O)c1c(OC(C)=O)c2c(c(N(C)C)c1OC(C)=O)CC1Cc3c(N(C)C)ccc(OC(C)=O)c3C(=O)C1=C2OC(C)=O (stereo not drawn) [pentaacetyl cyclin, A-ring aromatized pentaacetyl minocycline]
growth inhibition of E. coli (inhibiting areolas) (E. coli C 600 hfc strain): does not show any growth inhibition | concentration showing protective effect against H2O2-induced damage of cells/mitochondria [1]: 1.0 µM
